Assay results: patent US20170232115A1 (priority 2011, published 2017)
No end group written: not given here.

What was measured:
[1] = In vitro transdermal permeation, modified Franz diffusion cells, HPLC; format: in vitro ADME, human
Procedure: Finally, a number of these cosolvent formulations were evaluated for their in vitro transdermal permeation properties (FIG. 3X2). Note that these cosolvents are also known to function as permeability enhancers in some formulations (10-1 1). For this series of experiments, human skin obtained from abdominoplastic surgery was mounted on modified Franz diffusion cells and drug permeation was determined as a function of time using high performance liquid chromatography.
The Franz diffusion cell is an essential tool in the field of transdermal drug delivery. Patient-derived skin is placed between the cell cap and the solution chamber. The cell cap is exposed to the environment allowing the stratum corneum to also be exposed to the environment. The solution chamber is filled with an isotonic diffusion buffer. Additionally the solution chamber has an injection port that allows for difhsion buffer to be removed without disturbing the setup. Finally, the solution chamber is surrounded by a water jacket that allows for temperature control. The Franz diffusion cell allows for in vitro studies of transdennal delivery to be carried out using physiological conditions. Note that penetration of any solute through the patient-derived skin into the difhsion buffer is equivalent to that solute reaching systemic circulation in an in vivo system. […] Determination of silica content in different layers of the skin will be determined using enzymatic tissue digestion, and inductively coupled plasma mass spectroscopy (ICP mass spec). Both the SLB and nanoporous particle core can be fluorescently tagged to allow for confocal microscopy. In addition, the skin samples can be microtomed after treatment and incubation with protocells so that they can be imaged using TEM.

[2] = cited from earlier work
[3] = biological target: hepatocyte growth factor receptor (c-Met) (Homo sapiens, UniProt P08581); settings: peptide identified by phage display
Chain of hepatocyte growth factor receptor (c-Met) (P08581 25-932): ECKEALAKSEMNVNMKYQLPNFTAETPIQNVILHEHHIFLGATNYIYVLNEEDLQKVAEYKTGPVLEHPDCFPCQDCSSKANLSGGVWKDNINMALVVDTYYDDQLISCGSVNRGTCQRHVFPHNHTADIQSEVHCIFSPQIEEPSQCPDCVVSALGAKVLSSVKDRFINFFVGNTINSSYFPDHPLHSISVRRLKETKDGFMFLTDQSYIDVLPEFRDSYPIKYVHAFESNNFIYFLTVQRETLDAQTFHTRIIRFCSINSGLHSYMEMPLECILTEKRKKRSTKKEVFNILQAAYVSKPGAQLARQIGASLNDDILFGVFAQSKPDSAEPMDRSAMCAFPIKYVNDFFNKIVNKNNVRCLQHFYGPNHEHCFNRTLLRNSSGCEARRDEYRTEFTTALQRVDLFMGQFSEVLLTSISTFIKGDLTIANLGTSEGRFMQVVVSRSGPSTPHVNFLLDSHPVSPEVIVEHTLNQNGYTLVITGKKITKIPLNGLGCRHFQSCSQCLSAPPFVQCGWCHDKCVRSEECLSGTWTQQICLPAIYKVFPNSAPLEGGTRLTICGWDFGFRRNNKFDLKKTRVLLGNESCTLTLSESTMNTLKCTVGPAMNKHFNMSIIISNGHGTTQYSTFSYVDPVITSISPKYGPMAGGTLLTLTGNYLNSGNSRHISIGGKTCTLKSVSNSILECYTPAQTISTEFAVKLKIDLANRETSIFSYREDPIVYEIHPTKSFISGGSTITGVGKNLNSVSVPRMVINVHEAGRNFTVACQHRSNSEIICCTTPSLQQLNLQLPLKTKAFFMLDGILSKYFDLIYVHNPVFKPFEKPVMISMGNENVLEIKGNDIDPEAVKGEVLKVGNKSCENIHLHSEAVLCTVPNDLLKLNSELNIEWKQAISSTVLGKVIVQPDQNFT

Cc1ccc(NC(=O)c2ccc(CN3CCN(C)CC3)cc2)cc1Nc1nccc(-c2cccnc2)n1 [Imatinib]
permeability through the skin ([1]; DMSO): highest permeability | flux (rate of permeation through the skin) ([1]; DMSO formulation): 0.225 μg/cm2hr | permeation through the skin ([1]; water (pH 7) as solvent system, 24 hours): no imatinib permeated through the skin

CN1CCCC1c1cccnc1 (stereo not drawn) [Nicotine]
solubility in H2O [2]: miscible in H2O

CC(C)Cc1ccc(C(C)C(=O)O)cc1 (stereo not drawn) [ibuprofen]
solubility in H2O [2]: insoluble in H2O

ASVHFPP [MC40]
affinity for hepatocyte growth factor receptor (c-Met) [3]: nanomolar affinity
